Test results: patent publication US20080045611A1, “Methods for the therapeutic use of a carbonic anhydrase inhibitor for reducing spinal cord edema” (priority 2006, published 2008)

Assay: Case: patient with ascending spinal cord edema after thoracic fracture and spinal cord injury, treated intravenously
Assay type: in vivo
Settings: spinal cord edema on MRI after laminectomy and surgical fixation, intravenous dose of 500 mg in sterile saline, within a short period
Experimental: A patient, suffers a fractured thoracic vertebrae and spinal cord injury. […] An intravenous dose of 500 mg of acetazolamide in sterile saline is administered.

## CC(=O)Nc1nnc(S(N)(=O)=O)s1 [acetazolamide]
  neurological outcome (sensory and motor functions): regains sensory and motor functions in their upper extremities
